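Briefly, cells in 96-well plates were exposed to five compound concentrations for 48 h, and endpoints were estimated by linear interpolation. Here, GI50 denotes the concentration required for 50% inhibition of growth. The concentration for full growth arrest is given as TGI.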
How the values were obtained:
Assay in all cases: inhibition of tumour cell growth, NCI panel, 48 h
[1] = system: 786-0 renal
[2] = system: A498 renal
[3] = system: A549 NSCLC
[4] = system: ACHN renal
[5] = system: BT-549 breast
[6] = system: CAKI-1 renal
[7] = system: CCRF-CEM leukemia
[8] = system: COLO 205 colon
[9] = system: DU-145 prostate
[10] = system: EKVX NSCLC
[11] = system: HCC-2998 colon
[12] = system: HCT-116 colon
[13] = system: HCT-15 colon
[14] = system: HL-60(TB) leukemia
[15] = system: HOP-62 NSCLC
[16] = system: HOP-92 NSCLC
[17] = system: HS 578T breast
[18] = system: HT29 colon
[19] = system: IGROV1 ovarian
[20] = system: K-562 leukemia
[21] = system: KM12 colon
[22] = system: LOX IMVI melanoma
[23] = system: M14 melanoma
[24] = system: MALME-3M melanoma
[25] = system: MCF7 breast
[26] = system: MDA-MB-231 breast
[27] = system: MDA-MB-435
[28] = system: NCI-H226 lung
[29] = system: NCI-H23 lung
[30] = system: NCI-H460 lung
[31] = system: NCI-H522 lung
[32] = system: NCI/ADR-RES ovarian
[33] = system: OVCAR-3 ovarian
[34] = system: OVCAR-4 ovarian
[35] = system: OVCAR-5 ovarian
[36] = system: OVCAR-8 ovarian
[37] = system: PC-3 prostate
[38] = system: RPMI-8226 leukemia
[39] = system: RXF 393 renal
[40] = system: SF-268 CNS
[41] = system: SF-295 CNS
[42] = system: SF-539 CNS
[43] = system: SK-MEL-2 melanoma
[44] = system: SK-MEL-28 melanoma
[45] = system: SK-MEL-5 melanoma
[46] = system: SK-OV-3 ovarian
[47] = system: SN12C renal
[48] = system: SNB-19 CNS
[49] = system: SNB-75 CNS
[50] = system: SR leukemia
[51] = system: SW-620 colon
[52] = system: T-47D breast
[53] = system: TK-10 renal
[54] = system: U251 CNS
[55] = system: UACC-257 melanoma
[56] = system: UACC-62 melanoma
[57] = system: UO-31 renal

`O=C1OCC(C#Cc2ccccc2)=C1Br` showed a GI50 [1] of 2580 nM, a TGI [1] of 12.5 µM and a GI50 [2] of 19.3 µM. It also gave a TGI [2] of 54.5 µM, a GI50 [3] of 16.7 µM and a TGI [3] of 34.6 µM. The GI50 [4] was 9.34 µM, the TGI [4] was greater than 43.9 µM and the GI50 [5] was 6.03 µM. The TGI [5] was 27.4 µM, the GI50 [6] was 5.61 µM and the TGI [6] was 13.4 µM. For the same compound, the GI50 [7] was 1100 nM, the TGI [7] was 5.58 µM and the GI50 [8] was 5.35 µM. For the same compound, the TGI [8] was greater than 54.7 µM, the GI50 [9] was 3.42 µM and the TGI [9] was 13.2 µM. The GI50 [10] was 17.2 µM, the TGI [10] was 35.5 µM and the GI50 [11] was 19.3 µM. The TGI [11] was 37.3 µM, the GI50 [12] was 541 nM and the TGI [12] was greater than 31.6 µM. The GI50 [13] was 3.96 µM, the TGI [13] was greater than 38.4 µM and the GI50 [14] was 20.1 nM. The TGI [14] was 384 nM, the GI50 [15] was 13.2 µM and the TGI [15] was 38.2 µM. For the same compound, the GI50 [16] was 3.93 µM, the TGI [16] was 13.4 µM and the GI50 [17] was 6.2 µM. For the same compound, the TGI [17] was 19 µM, the GI50 [18] was 7.67 µM and the TGI [18] was 97.4 µM. The GI50 [19] was 4.77 µM, the TGI [19] was 33.5 µM and the GI50 [20] was 2630 nM. For the same compound, the TGI [20] was 11.6 µM, the GI50 [21] was 3.64 µM and the TGI [21] was 15 µM. The GI50 [22] was 3.15 µM, the TGI [22] was greater than 35.9 µM and the GI50 [23] was 2830 nM. For the same compound, the TGI [23] was 16 µM, the GI50 [24] was 2180 nM and the TGI [24] was 9.33 µM. It also gave a GI50 [25] of 2690 nM, a TGI [25] of 12.8 µM and a GI50 [26] of 3.12 µM. For the same compound, the TGI [26] was 14.8 µM, the GI50 [27] was 10.8 µM and the TGI [27] was 48.3 µM. It also gave a GI50 [28] of 23.1 µM, a TGI [28] of 72 µM and a GI50 [29] of 2940 nM. It also gave a TGI [29] of 9.5 µM, a GI50 [30] of 19.5 µM and a TGI [30] of 48.5 µM. For the same compound, the GI50 [31] was 17.4 µM, the TGI [31] was 49.7 µM and the GI50 [32] was 6.25 µM. For the same compound, the TGI [32] was greater than 63.2 µM, the GI50 [33] was 1770 nM and the TGI [33] was 8.9 µM. For the same compound, the GI50 [34] was 7.13 µM, the TGI [34] was 27.7 µM and the GI50 [35] was greater than 100 µM. The TGI [35] was greater than 100 µM, the GI50 [36] was 2270 nM and the TGI [36] was 7.26 µM. It also gave a GI50 [37] of 2560 nM, a TGI [37] of 12.7 µM and a GI50 [38] of 648 nM. For the same compound, the TGI [38] was 3.09 µM, the GI50 [39] was 3.96 µM and the TGI [39] was 31.8 µM. For the same compound, the GI50 [40] was 4.76 µM, the TGI [40] was 20.6 µM and the GI50 [41] was 17.7 µM. For the same compound, the TGI [41] was 48.8 µM, the GI50 [42] was 2420 nM and the TGI [42] was 9.81 µM. It also gave a GI50 [43] of 18.8 µM, a TGI [43] of 52.4 µM and a GI50 [44] of 4.75 µM. The TGI [44] was greater than 100 µM, the GI50 [45] was 1820 nM and the TGI [45] was 6.15 µM. For the same compound, the GI50 [46] was 52.9 µM, the TGI [46] was greater than 100 µM and the GI50 [47] was 3.14 µM. The TGI [47] was 14.1 µM, the GI50 [48] was 21.5 µM and the TGI [48] was greater than 68.8 µM. The GI50 [49] was 18.1 µM, the TGI [49] was greater than 100 µM and the GI50 [50] was 186 nM. For the same compound, the TGI [50] was greater than 100 µM, the GI50 [51] was 1720 nM and the TGI [51] was 5.75 µM. The GI50 [52] was 16.3 µM, the TGI [52] was greater than 67.5 µM and the GI50 [53] was 929 nM. The TGI [53] was 17.1 µM, the GI50 [54] was 4.88 µM and the TGI [54] was greater than 39.3 µM. For the same compound, the GI50 [55] was 8.26 µM, the TGI [55] was 28.2 µM and the GI50 [56] was 10.7 µM. The TGI [56] was 26.1 µM, the GI50 [57] was 7.66 µM and the TGI [57] was 22.7 µM.

— PubChem BioAssay (NCI)
